# Reference: the supplement of paper PMC10307832
# Columns and labels:
# Assay in all cases: relative viability (nuclei count vs DMSO), 5 days (fraction); higher = more cells survive
# [1] = compound: CN(c1ncccc1CNc1nc(Nc2ccc3c(c2)CC(=O)N3)ncc1C(F)(F)F)S(C)(=O)=O
# In short: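 Nuclei counted with MetaXpress define viability as the ratio of treated to vehicle wells, given as a median across plates. The lung cancer cell lines were in 1536-well plates, pinned with five √10-spaced library-drug doses and imaged at 4× after 5 days and Hoechst staining. Plates passed with control CV below 25% and at least one doubling.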
# [2] = compound: CN(c1ncccc1CNc1nc(Nc2ccc3c(c2)CC(=O)N3)ncc1C(F)(F)F)S(C)(=O)=O + CCNC(=O)c1noc(-c2cc(C(C)C)c(O)cc2O)c1-c1ccc(CN2CCOCC2)cc1 [Luminespib] (partner 0.01 µM)
# In short: (§1)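 The day after seeding in 1536-well plates, lung cancer cell lines were treated by pin tool with a single drug, or with a fixed anchor-drug dose together with five library-drug doses (not always all listed) in √10 steps. After 5 days, a combined fix-and-stain solution (final 0.05% Triton X-100, 1% formaldehyde, 1 ug/ml Hoechst) was added. Nuclei counted on 4× images gave relative viability as treated counts over vehicle counts, reported as the median of duplicate plates.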
# [3] = compound: CN(c1ncccc1CNc1nc(Nc2ccc3c(c2)CC(=O)N3)ncc1C(F)(F)F)S(C)(=O)=O + COc1cc2c(Oc3ccc(NC(=O)C4(C(=O)Nc5ccc(F)cc5)CC4)cc3F)ccnc2cc1OCCCN1CCOCC1 [Foretinib] (partner 0.25 µM)
# In short: as §1
# [4] = compound: CN(c1ncccc1CNc1nc(Nc2ccc3c(c2)CC(=O)N3)ncc1C(F)(F)F)S(C)(=O)=O + COc1cccc2cc(-c3nc([C@H]4CC[C@H](C(=O)O)CC4)n4ncnc(N)c34)[nH]c12 [OSI-027] (partner 0.5 µM)
# In short: as §1
# [5] = compound: CN(c1ncccc1CNc1nc(Nc2ccc3c(c2)CC(=O)N3)ncc1C(F)(F)F)S(C)(=O)=O + Cc1cc(Nc2cc(N3CCN(C)CC3)nc(Sc3ccc(NC(=O)C4CC4)cc3)n2)n[nH]1 [Tozasertib] (partner 0.1 µM)
# In short: as §1
# [6] = compound: CN(c1ncccc1CNc1nc(Nc2ccc3c(c2)CC(=O)N3)ncc1C(F)(F)F)S(C)(=O)=O + Cc1nc(Nc2ncc(C(=O)Nc3c(C)cccc3Cl)s2)cc(N2CCN(CCO)CC2)n1 [Dasatinib] (partner 0.075 µM)
# In short: as §1
# [7] = compound: CN(c1ncccc1CNc1nc(Nc2ccc3c(c2)CC(=O)N3)ncc1C(F)(F)F)S(C)(=O)=O + N=C(N)NC(=N)NCCc1ccccc1 [Phenformin] (partner 250 µM)
# In short: as §1
# [8] = compound: CN(c1ncccc1CNc1nc(Nc2ccc3c(c2)CC(=O)N3)ncc1C(F)(F)F)S(C)(=O)=O + CC(=O)Nc1cccc(-n2c(=O)n(C3CC3)c(=O)c3c(Nc4ccc(I)cc4F)n(C)c(=O)c(C)c32)c1 [Trametinib] (partner 0.02 µM)
# In short: as §1
# [9] = compound: CN(c1ncccc1CNc1nc(Nc2ccc3c(c2)CC(=O)N3)ncc1C(F)(F)F)S(C)(=O)=O + CC(=O)c1c(C)c2cnc(Nc3ccc(N4CCNCC4)cn3)nc2n(C2CCCC2)c1=O [Palbociclib] (partner 0.5 µM)
# In short: as §1
# [10] = compound: CN(c1ncccc1CNc1nc(Nc2ccc3c(c2)CC(=O)N3)ncc1C(F)(F)F)S(C)(=O)=O + NC(=O)Nc1cc(-c2cccc(F)c2)sc1C(=O)N[C@H]1CCCNC1 [AZD7762] (partner 0.2 µM)
# In short: as §1
# [11] = compound: CN(c1ncccc1CNc1nc(Nc2ccc3c(c2)CC(=O)N3)ncc1C(F)(F)F)S(C)(=O)=O + Nc1nc2[nH]cc(CCc3ccc(C(=O)N[C@@H](CCC(=O)O)C(=O)O)cc3)c2c(=O)[nH]1 [Pemetrexed] (partner 0.2 µM)
# In short: as §1
# [12] = compound: CN(c1ncccc1CNc1nc(Nc2ccc3c(c2)CC(=O)N3)ncc1C(F)(F)F)S(C)(=O)=O + Nc1ncn([C@H]2C[C@H](O)[C@@H](CO)O2)c(=O)n1 [Decitabine] (partner 2 µM)
# In short: as §1
# [13] = compound: CN(c1ncccc1CNc1nc(Nc2ccc3c(c2)CC(=O)N3)ncc1C(F)(F)F)S(C)(=O)=O + O=C(CCCCCCC(=O)Nc1ccccc1)NO [Vorinostat] (partner 1 µM)
# In short: as §1
# [14] = compound: CN(c1ncccc1CNc1nc(Nc2ccc3c(c2)CC(=O)N3)ncc1C(F)(F)F)S(C)(=O)=O + O=C(c1cc(Cc2n[nH]c(=O)c3ccccc23)ccc1F)N1CCN(C(=O)C2CC2)CC1 [Olaparib] (partner 8 µM)
# In short: as §1
cell line,measurement,setting,value
NCI-H1623,relative viability,[1]; 0.01 µM,0.733
same,relative viability,[1]; 0.03162 µM,1.07
same,relative viability,[1]; 0.1 µM,0.92
same,relative viability,[1]; 0.3162 µM,0.968
same,relative viability,[1]; 1 µM,0.963
same,relative viability,[2]; first compound 0.03162 µM,0.59
same,relative viability,[2]; first compound 0.1 µM,0.503
same,relative viability,[2]; first compound 0.3162 µM,0.514
same,relative viability,[2]; first compound 1 µM,0.429
same,relative viability,[3]; first compound 0.01 µM,0.798
same,relative viability,[3]; first compound 0.03162 µM,0.905
same,relative viability,[3]; first compound 0.1 µM,0.974
same,relative viability,[3]; first compound 0.3162 µM,0.882
same,relative viability,[3]; first compound 1 µM,0.826
same,relative viability,[4]; first compound 0.01 µM,0.418
same,relative viability,[4]; first compound 0.03162 µM,0.423
same,relative viability,[4]; first compound 0.1 µM,0.428
same,relative viability,[4]; first compound 0.3162 µM,0.435
same,relative viability,[4]; first compound 1 µM,0.462
same,relative viability,[5]; first compound 0.03162 µM,0.452
same,relative viability,[5]; first compound 0.1 µM,0.383
same,relative viability,[5]; first compound 0.3162 µM,0.447
same,relative viability,[5]; first compound 1 µM,0.428
same,relative viability,[6]; first compound 0.03162 µM,0.514
same,relative viability,[6]; first compound 0.1 µM,0.623
same,relative viability,[6]; first compound 0.3162 µM,0.51
same,relative viability,[6]; first compound 1 µM,0.528
same,relative viability,[7]; first compound 0.03162 µM,0.571
same,relative viability,[7]; first compound 0.1 µM,0.626
same,relative viability,[7]; first compound 0.3162 µM,0.568
same,relative viability,[7]; first compound 1 µM,0.593
NCI-H2342,relative viability,[1]; 0.01 µM,0.884
same,relative viability,[1]; 0.03162 µM,1.02
same,relative viability,[1]; 0.1 µM,0.791
same,relative viability,[1]; 0.3162 µM,0.962
same,relative viability,[1]; 1 µM,0.854
same,relative viability,[8]; first compound 0.01 µM,0.906
same,relative viability,[8]; first compound 0.03162 µM,0.819
same,relative viability,[8]; first compound 0.1 µM,0.753
same,relative viability,[8]; first compound 0.3162 µM,0.774
same,relative viability,[8]; first compound 1 µM,0.806
same,relative viability,[9]; first compound 0.01 µM,0.564
same,relative viability,[9]; first compound 0.03162 µM,0.536
same,relative viability,[9]; first compound 0.1 µM,0.548
same,relative viability,[9]; first compound 0.3162 µM,0.497
same,relative viability,[9]; first compound 1 µM,0.455
same,relative viability,[2]; first compound 0.01 µM,0.702
same,relative viability,[2]; first compound 0.03162 µM,0.736
same,relative viability,[2]; first compound 0.1 µM,0.643
same,relative viability,[2]; first compound 0.3162 µM,0.632
same,relative viability,[2]; first compound 1 µM,0.723
same,relative viability,[3]; first compound 0.01 µM,1.15
same,relative viability,[3]; first compound 0.03162 µM,0.976
same,relative viability,[3]; first compound 0.1 µM,0.927
same,relative viability,[3]; first compound 0.3162 µM,0.953
same,relative viability,[3]; first compound 1 µM,0.999
same,relative viability,[4]; first compound 0.01 µM,0.579
same,relative viability,[4]; first compound 0.03162 µM,0.614
same,relative viability,[4]; first compound 0.1 µM,0.617
same,relative viability,[4]; first compound 0.3162 µM,0.519
same,relative viability,[4]; first compound 1 µM,0.57
same,relative viability,[5]; first compound 0.01 µM,0.524
same,relative viability,[5]; first compound 0.03162 µM,0.493
same,relative viability,[5]; first compound 0.1 µM,0.561
same,relative viability,[5]; first compound 0.3162 µM,0.409
same,relative viability,[5]; first compound 1 µM,0.489
same,relative viability,[6]; first compound 0.01 µM,0.32
same,relative viability,[6]; first compound 0.03162 µM,0.306
same,relative viability,[6]; first compound 0.1 µM,0.306
same,relative viability,[6]; first compound 0.3162 µM,0.286
same,relative viability,[6]; first compound 1 µM,0.297
same,relative viability,[7]; first compound 0.01 µM,0.638
same,relative viability,[7]; first compound 0.03162 µM,0.563
same,relative viability,[7]; first compound 0.1 µM,0.475
same,relative viability,[7]; first compound 0.3162 µM,0.522
same,relative viability,[7]; first compound 1 µM,0.475
same,relative viability,[10]; first compound 0.01 µM,0.506
same,relative viability,[10]; first compound 0.03162 µM,0.516
same,relative viability,[10]; first compound 0.1 µM,0.472
same,relative viability,[10]; first compound 0.3162 µM,0.402
same,relative viability,[10]; first compound 1 µM,0.404
same,relative viability,[11]; first compound 0.01 µM,0.775
same,relative viability,[11]; first compound 0.03162 µM,0.885
same,relative viability,[11]; first compound 0.1 µM,0.801
same,relative viability,[11]; first compound 0.3162 µM,0.789
same,relative viability,[11]; first compound 1 µM,0.757
same,relative viability,[12]; first compound 0.01 µM,0.802
same,relative viability,[12]; first compound 0.03162 µM,0.728
same,relative viability,[12]; first compound 0.1 µM,0.631
same,relative viability,[12]; first compound 0.3162 µM,0.742
same,relative viability,[12]; first compound 1 µM,0.717
same,relative viability,[13]; first compound 0.01 µM,0.772
same,relative viability,[13]; first compound 0.03162 µM,0.848
same,relative viability,[13]; first compound 0.1 µM,0.696
same,relative viability,[13]; first compound 0.3162 µM,0.646
same,relative viability,[13]; first compound 1 µM,0.803
same,relative viability,[14]; first compound 0.01 µM,0.494
same,relative viability,[14]; first compound 0.03162 µM,0.503
same,relative viability,[14]; first compound 0.1 µM,0.471
same,relative viability,[14]; first compound 0.3162 µM,0.352
same,relative viability,[14]; first compound 1 µM,0.398
